The values that follow come from US10150760B2, “Compounds for use in preparing heterocyclic triazole agonists of the APJ receptor” (AMGEN INC., priority 2016, dated 2018).

This test concerns the target human APJ receptor (Homo sapiens (Human), UniProt P35414). As to the kind of experiment: [35S]GTPγS binding assay on membranes from CHO cells stably expressing human APJ receptor. Type of test: biochemical. The note with it: read-out: Activity hAPJ SPA EC50 IP. The method in brief: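 Membranes from CHO cells stably expressing human APJ incubated with ligand, 0.2 nM [35S]GTPγS and WGA SPA beads in HEPES pH 7.5 with 5 mM MgCl2, 200 mM NaCl, 3 μM GDP, 90 min at RT. Nonspecific binding defined with 100 μM GTPγS; EC50 by non-linear regression.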
On the technique in general: GTPγS is a poorly hydrolysed GTP analogue; its binding reports G protein activation.

human APJ receptor, sequence (P35414 whole entry): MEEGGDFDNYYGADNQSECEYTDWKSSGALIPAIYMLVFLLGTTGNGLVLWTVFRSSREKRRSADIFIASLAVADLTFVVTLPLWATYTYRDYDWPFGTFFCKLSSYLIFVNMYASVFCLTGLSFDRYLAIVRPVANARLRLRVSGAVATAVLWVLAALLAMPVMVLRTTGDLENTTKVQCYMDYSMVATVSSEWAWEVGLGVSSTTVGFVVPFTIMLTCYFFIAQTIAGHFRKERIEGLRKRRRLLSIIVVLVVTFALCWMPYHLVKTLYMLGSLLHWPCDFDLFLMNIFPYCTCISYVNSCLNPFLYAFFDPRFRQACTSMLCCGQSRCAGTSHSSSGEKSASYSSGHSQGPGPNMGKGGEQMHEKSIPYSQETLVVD

For the molecule `COCCn1c(NS(=O)(=O)[C@@H](C)[C@H](OC)c2ncc(Cl)cn2)nnc1[C@H]1CCC(C)(C)O1` (single isomer, unassigned) [Example 287.0, (1R,2S)-1-(5-chloropyrimidin-2-yl)-N-(5-((R)-5,5-dimethyltetrahydrofuran-2-yl)-4-(2-methoxyethyl)-4H-1,2,4-triazol-3-yl)-1-methoxypropane-2-sulfonamide or (1R,2S)-1-(5-chloropyrimidin-2-yl)-N-(5-((S)-5,5-dimethyltetrahydrofuran-2-yl)-4-(2-methoxyethyl)-4H-1,2,4-triazol-3-yl)-1-methoxypropane-2-sulfonamide], the EC50 (as a rule, the concentration at which the effect is half-maximal) worked out at 860 nM. With `COCCn1c(NS(=O)(=O)[C@@H](C)[C@H](OC)c2ncc(Cl)cn2)nnc1[C@H]1CCC(C)(C)O1` (single isomer, unassigned) [Example 288.0, (1R,2S)-1-(5-chloropyrimidin-2-yl)-N-(5-((R)-5,5-dimethyltetrahydrofuran-2-yl)-4-(2-methoxyethyl)-4H-1,2,4-triazol-3-yl)-1-methoxypropane-2-sulfonamide or (1R,2S)-1-(5-chloropyrimidin-2-yl)-N-(5-((S)-5,5-dimethyltetrahydrofuran-2-yl)-4-(2-methoxyethyl)-4H-1,2,4-triazol-3-yl)-1-methoxypropane-2-sulfonamide], the EC50 was 410 nM. As to `COCC1(n2c(NS(=O)(=O)[C@@H](C)[C@H](OC)c3ncc(Cl)cn3)nnc2[C@H]2CCC(C)(C)O2)CC1` (single isomer, unassigned) [Example 289.0, (1R,2S)-1-(5-chloropyrimidin-2-yl)-N-(5-((R)-5,5-dimethyltetrahydrofuran-2-yl)-4-(1-(methoxymethypcyclopropyl)-4H-1,2,4-triazol-3-yl)-1-methoxypropane-2-sulfonamide or (1R,2S)-1-(5-chloropyrimidin-2-yl)-N-(5-((S)-5,5-dimethyltetrahydrofuran-2-yl)-4-(1-(methoxymethypcyclopropyl)-4H-1,2,4-triazol-3-yl)-1-methoxypropane-2-sulfonamide], the EC50 amounted to 1100 nM. Regarding `COCC1(n2c(NS(=O)(=O)[C@@H](C)[C@H](OC)c3ncc(Cl)cn3)nnc2[C@H]2CCC(C)(C)O2)CC1` (single isomer, unassigned) [Example 290.0, (1R,2S)-1-(5-chloropyrimidin-2-yl)-N-(5-((R)-5,5-dimethyltetrahydrofuran-2-yl)-4-(1-(methoxymethypcyclopropyl)-4H-1,2,4-triazol-3-yl)-1-methoxypropane-2-sulfonamide or (1R,2S)-1-(5-chloropyrimidin-2-yl)-N-(5-((S)-5,5-dimethyltetrahydrofuran-2-yl)-4-(1-(methoxymethyl)cyclopropyl)-4H-1,2,4-triazol-3-yl)-1-methoxypropane-2-sulfonamide], the EC50 is 23 nM.

For the molecule `COc1ncnc(OC)c1-n1c(NS(=O)(=O)[C@@H](C)[C@@H](OC(C)C)c2ncc(Cl)cn2)nnc1[C@H]1CCOC1` (single isomer, unassigned) [Example 291.0, (1S,2S)-1-(5-chloropyrimidin-2-yl)-N-(4-(4,6-dimethoxypyrimidin-5-yl)-5-((R)-tetrahydrofuran-3-yl)-4H-1,2,4-triazol-3-yl)-1-isopropoxypropane-2-sulfonamide or (1S,2S)-1-(5-chloropyrimidin-2-yl)-N-(4-(4,6-dimethoxypyrimidin-5-yl)-5-((S)-tetrahydrofuran-3-yl)-4H-1,2,4-triazol-3-yl)-1-isopropoxypropane-2-sulfonamide], the EC50 amounted to 5.2 nM.
